Ten molecules from the SangsterLogP compilation can be followed below.

Assay in the first data set: not given
Conditions: not given
Molecule `CC1CCCc2nccc(=O)n21` (stereo not given) registered a logP of 0.37.

`O=c1ccnc2n1CCCC2` registered a logP of 0.13.

For the molecule `O=c1ccnc2ccccn12`, the logP came out at 0.3.

Consider `CCc1cnc2cccc(C)n2c1=O`, for which the logP is 1.58.

The next data set can be described thus: method code SF-AS, from DOI: 10.1016/s0021-9673(01)88398-9. The conditions noted are these: pH 5.0.
`Cc1cccc2nccc(=O)n12` came in with a logD of 0.74.

In turn, `Cc1cnc2cccc(C)n2c1=O` returned a logD of 1.27.

In turn, `Cc1cc(=O)n2c(n1)CCCC2C` (stereo not given) displayed a logD of 0.67.

As for `CCc1c(C)nc2n(c1=O)C(C)CCC2` (stereo not given), the logD was found to be 1.43.

Regarding `CCc1c(C)nc2cccc(C)n2c1=O`, the logD was 1.86.

For `CCCc1c(C)nc2cccc(C)n2c1=O`, the logD is 2.22.
